These results are taken from US20250361526A1, “[…] CYTOMEGALOVIRUS-DERIVED TOOL VIRUS, METHOD OF PRODUCING THE SAME AND APPLICATIONS THEREOF” (WUHAN INSTITUTE OF VIROLOGY, CHINESE ACADEMY OF SCIENCES, priority 2022, published 2025).

This assay deals with MCMV. In words: In vivo challenge of newborn ICR mice with K181-Nluc/Green, live and organ imaging. Here is the method: To verify whether recombinant virus K181-Nluc/Green can be applied to evaluate potential drugs, neutralizing antibodies, vaccines, etc. against CMV in vivo. The inventors of the present invention carried out in vivo challenge test with ICR mice in the Animal Biosafety Laboratory (ABSL-2). […] Twelve newborn ICR mice were divided into three groups: control group (PBS), placebo group (DMSO) and ganciclovir (GCV) treatment group. By intracerebroventricular injection (I.C.), 1 μl (4×10^5 PFU) K181-Nluc/Green virus solution was injected into the lateral ventricles of newborn mice (P0) to establish the brain infection model of MCMV virus. After 1 day of challenge, 50 mg/kg GCV was given to mice every day until the 7th day after infection, and the Nanoluc substrate (Cat. #N1120, Promega, USA) was intraperitoneally injected on the 1st, 3rd, 5th, 7th, 9th, 11th and 14th days after infection.
In addition, seven days after the mice were infected, one mouse was randomly selected from the placebo (DMSO) group and the GCV treatment group, and Nanoluc substrate was injected intraperitoneally. […] The organs and tissues of mice were taken, and the content of MCMV virus in organs and tissues of mice in different groups was evaluated by fluorescence activity.

Turning to `Nc1nc(O)c2ncn(COC(CO)CO)c2n1` [GCV, ganciclovir], the “Nluc or GFP signals in different organs of mice” value (I.C. 4×10^5 PFU K181-Nluc/Green, 50 mg/kg GCV every day, 7 days after infection (FIGS. 14 and 15)) is “no detection of apparent Nluc or GFP signals”. Moreover, the “MCMV replication and spreading in vivo” value (I.C. K181-Nluc/Green, 50 mg/kg GCV every day until the 7th day) is “effectively reduce the MCMV replication and spreading in vivo”.
